Experimental data published in ChEMBL document CHEMBL2074107, “Zoledronic acid is synergic with vinblastine to induce apoptosis in a multidrug resistance protein-1 dependent way: an in vitro study” (Cell Biol Int, 2006).

Molecular target: Multidrug resistance-associated protein 1 (Homo sapiens, UniProt P33527)
Experiment: TP_TRANSPORTER: inhibition of apoptosis in hMRP1-expressing HEK293 cells
Type: functional, cell-based

Chain of Multidrug resistance-associated protein 1 (P33527 whole entry): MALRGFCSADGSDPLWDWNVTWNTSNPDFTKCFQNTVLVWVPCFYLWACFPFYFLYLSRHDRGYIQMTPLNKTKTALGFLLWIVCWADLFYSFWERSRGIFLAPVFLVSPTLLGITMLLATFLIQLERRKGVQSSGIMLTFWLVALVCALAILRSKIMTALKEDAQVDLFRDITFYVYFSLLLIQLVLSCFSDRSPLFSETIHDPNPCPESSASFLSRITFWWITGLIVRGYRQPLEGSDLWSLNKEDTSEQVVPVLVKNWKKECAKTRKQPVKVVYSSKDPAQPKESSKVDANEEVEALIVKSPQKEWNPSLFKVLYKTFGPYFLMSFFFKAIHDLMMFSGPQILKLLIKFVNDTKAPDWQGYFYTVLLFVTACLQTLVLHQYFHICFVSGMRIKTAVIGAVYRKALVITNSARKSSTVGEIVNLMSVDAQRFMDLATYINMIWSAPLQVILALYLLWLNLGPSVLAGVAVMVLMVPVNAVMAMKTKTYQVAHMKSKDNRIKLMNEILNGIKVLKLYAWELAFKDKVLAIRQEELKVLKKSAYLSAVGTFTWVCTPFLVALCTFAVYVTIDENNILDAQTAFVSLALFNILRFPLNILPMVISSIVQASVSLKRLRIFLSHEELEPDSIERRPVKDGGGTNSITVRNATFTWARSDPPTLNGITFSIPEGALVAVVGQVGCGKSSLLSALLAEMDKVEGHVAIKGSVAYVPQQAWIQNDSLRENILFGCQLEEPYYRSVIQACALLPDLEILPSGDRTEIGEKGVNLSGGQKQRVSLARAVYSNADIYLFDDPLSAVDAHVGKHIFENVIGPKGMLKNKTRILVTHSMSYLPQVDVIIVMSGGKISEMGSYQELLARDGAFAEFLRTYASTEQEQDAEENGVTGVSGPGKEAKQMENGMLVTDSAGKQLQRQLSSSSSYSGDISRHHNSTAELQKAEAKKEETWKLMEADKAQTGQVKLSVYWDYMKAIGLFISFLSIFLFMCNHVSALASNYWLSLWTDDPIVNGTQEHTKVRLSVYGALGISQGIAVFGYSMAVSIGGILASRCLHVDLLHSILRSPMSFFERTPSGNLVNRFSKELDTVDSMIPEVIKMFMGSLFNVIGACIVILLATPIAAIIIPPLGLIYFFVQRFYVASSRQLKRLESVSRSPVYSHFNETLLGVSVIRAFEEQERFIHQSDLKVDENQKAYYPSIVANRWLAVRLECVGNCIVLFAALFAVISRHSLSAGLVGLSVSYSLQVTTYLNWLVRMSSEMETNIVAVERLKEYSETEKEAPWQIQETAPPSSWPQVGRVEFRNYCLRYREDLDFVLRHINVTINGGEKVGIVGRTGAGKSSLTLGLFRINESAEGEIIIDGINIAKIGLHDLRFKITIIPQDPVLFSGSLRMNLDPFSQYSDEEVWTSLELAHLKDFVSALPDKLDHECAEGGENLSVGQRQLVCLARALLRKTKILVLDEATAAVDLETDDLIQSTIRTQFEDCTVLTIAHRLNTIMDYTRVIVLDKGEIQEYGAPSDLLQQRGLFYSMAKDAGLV

SMILES | Activity
O.O=P(O)(O)C(O)(Cn1ccnc1)P(=O)(O)O [ZOLEDRONIC ACID] | substrate []
CC[C@]1(O)C[C@@H]2CN(CCc3c([nH]c4ccccc34)[C@@](C(=O)OC)(c3cc4c(cc3OC)N(C)[C@H]3[C@@](O)(C(=O)OC)[C@H](OC(C)=O)[C@]5(CC)C=CCN6CC[C@]43[C@@H]65)C2)C1 [VINBLASTINE] | substrate []
